From patent publication US7060836B2, “Lactams as tachykinin antagonists” (Pfizer, Inc, priority 2001, dated 2006)

Molecular target: T1, human NK2 receptor (Homo sapiens, UniProt P21452)
T1 construct: expressed in transfected cells; host or cells: Chinese hamster ovary (CHO) cells, membranes
T1 sequence (P21452 1-398): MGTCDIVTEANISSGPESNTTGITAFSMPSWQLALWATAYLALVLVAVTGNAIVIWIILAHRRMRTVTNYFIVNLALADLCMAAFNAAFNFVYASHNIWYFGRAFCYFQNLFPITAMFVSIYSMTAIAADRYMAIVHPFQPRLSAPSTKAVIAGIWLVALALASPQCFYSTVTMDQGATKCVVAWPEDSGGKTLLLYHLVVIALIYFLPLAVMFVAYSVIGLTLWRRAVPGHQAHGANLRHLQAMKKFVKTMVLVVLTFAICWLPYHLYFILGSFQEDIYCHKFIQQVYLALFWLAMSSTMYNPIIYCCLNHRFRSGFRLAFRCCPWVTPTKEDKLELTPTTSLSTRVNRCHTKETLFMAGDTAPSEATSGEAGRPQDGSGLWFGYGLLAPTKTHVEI
Test: Competition with [3H] or [125I] NKA for binding to membranes of CHO cells expressing the cloned human NK2 receptor
Settings: membranes from CHO cells expressing cloned human NK2 receptor, 90 min, 25° C.
Protocol: The affinity of the compounds of formula (I), and their salts, for the human NK2 receptor can be assessed in vitro by testing their ability to compete with [^3H] or [^125I] NKA (neurokinin A) for binding to membranes prepared from Chinese hamster ovary cells expressing the cloned human NK2 receptor using a modification of the method described in McLean, S. et al., J. Pharm. Exp. Ther., 267, 472–9 (1993). The membranes are incubated (90 min, 25° C.) with [^3H] or [^125I] NKA and a range of concentrations of the test compound. Non specific binding was determined in the presence of 1 μM SR-48968 (N-[(2S)-4-[4-(acetylamino)-4-phenyl-1-piperidinyl]-2-(3,4-dichlorophenyl)butyl]-N-methyl benzamide).
With `Cc1cccc(N2C[C@@](CCN3CC(N4CCC(O)CC4)C3)(c3ccc(Cl)c(Cl)c3)CCC2=O)n1` [Example 135a, (5S)-5-(3,4-Dichlorophenyl)-1-(6-methyl-2-pyridinyl)-5-{2-[3-(4-hydroxypiperidinyl)-1-azetidinyl]ethyl}-2-piperidinone] the Ki was 3.7 nM. Work on `CC(=O)N(C)C1CCN(CC[C@]2(c3ccc(Cl)c(Cl)c3)CCC(=O)N(c3ccccn3)C2)CC1` [Example 158, N-(1-{2-[(3S)-3-(3,4-Dichlorophenyl)-6-oxo-1-(2-pyridinyl)piperidinyl]ethyl}-4-piperidinyl)-N-methylacetamide] yielded a Ki of 8 nM. Compound `COc1cccc(N2C[C@@](CCN3CC(N4CCOCC4)C3)(c3ccc(Cl)c(Cl)c3)CCC2=O)n1` [Example 119, (5S)-5-(3,4-Dichlorophenyl)-1-(6-methoxy-2-pyridinyl)-5-{2-[3-(4-morpholinyl)-1-azetidinyl]ethyl}-2-piperidinone] has a Ki of 5.4 nM. `COC1CCN(CC[C@]2(c3ccc(Cl)c(Cl)c3)CCC(=O)N(c3ccccn3)C2)CC1` [Example 61, (5S)-5-(3,4-Dichlorophenyl)-5-[2-(4-methoxy-1-piperidinyl)ethyl]-1-(2-pyridinyl)-2-piperidinone] showed a Ki of 12 nM. `Cc1cccc(N2C[C@@](CCN3CCC(O)(c4ccccc4)CC3)(c3ccc(Cl)c(Cl)c3)CCC2=O)n1` [Example 134, (5S)-5-(3,4-Dichlorophenyl)-1-(6-methyl-2-pyridinyl)-5-{{2-[4-hydroxy-4-phenyl]-1-piperidinyl}ethyl}-2-piperidinone] gave a Ki of 1.9 nM. In the case of `CC(=O)NC1(c2ccccc2)CCN(CC[C@]2(c3ccc(Cl)c(Cl)c3)CCC(=O)N(c3ccccn3)C2)CC1` [Example 90, N-(1-{2-[(3S)-3-(3,4-Dichlorophenyl)-6-oxo-1-(2-pyridinyl)piperidinyl]ethyl}-4-phenyl-4-piperidinyl)-acetamide], the Ki is reported as 2.4 nM. `O=C1CC[C@](CCN2CC(N3CCC(O)CC3)C2)(c2ccc(Cl)c(Cl)c2)CN1c1ccccn1` [Example 73, (5S)-5-(3,4-Dichlorophenyl)-5-{2-[3-(4-hydroxy-1-piperidinyl)-1-azetidinyl]ethyl}-1-(2-pyridinyl)-2-piperidinone] gave a Ki of 2.2 nM. `Cc1cccc(N2CC(CCN3CC(N4CCC(=O)CC4)C3)(c3ccc(Cl)c(Cl)c3)CCC2=O)n1` (centres unmarked) [Example 168, 5-(3,4-Dichlorophenyl)-1-(6-methyl-2-pyridinyl)-5-{2-[3-(4-oxo-1-piperidinyl)-1-azetidinyl]ethyl}-2-piperidinone] gave a Ki of 2.6 nM. `O=C1CC[C@](CCN2CCC(O)(c3ccccn3)CC2)(c2ccc(Cl)c(Cl)c2)CN1c1ccccn1` [Example 92, (5S)-5-(3,4-Dichlorophenyl)-5-{2-[4-hydroxy-4-(2-pyridyl)-1-piperidinyl]ethyl}-1-(2-pyridinyl)-2-piperidinone] gave a Ki of 7 nM. For `Cc1cccc(N2C[C@@](CCN3CC(N4CCOCC4)C3)(c3ccc(Cl)c(Cl)c3)CCC2=O)n1` [Example 131, (5S)-5-(3,4-Dichlorophenyl)-1-(6-methyl-2-pyridinyl)-5-{2-[3-(4-morpholinyl)-1-azetidinyl]ethyl}-2-piperidinone], the Ki was 3.8 nM.

Tested on: not given
Test: not given
Settings: not given
With `Cc1cccc(N2C[C@@](CCN3CC(N4CCC(O)CC4)C3)(c3ccc(Cl)c(Cl)c3)CCC2=O)n1.O=C(O)/C=C/C(=O)O` the melting point was 175.5 to 177 °C.
